Drawing on ChEMBL document CHEMBL3865818, “4,5-Diaryl-3H-1,2-dithiole-3-thiones and related compounds as combretastatin A-4/oltipraz hybrids: Synthesis, molecular modelling and evaluation as antiproliferative agents and inhibitors of tubulin” (Eur J Med Chem, 2016), this text covers IC50, Activity and inhibition in vivo for 25 compounds.

The source made the active and inactive calls. No cut-off for these calls is given here. Bounds are passed on as bounds.

The nature of one assay: Antiproliferative activity against human HT1080 cells measured after 72 hrs by MTT assay. The conditions noted are these: HT-1080, 72 h. In kind it is functional, cell-based. On the technique in general: Formazan colour is commonly taken as a measure of viable cells.
What is called IC50 is the concentration that inhibits the measured activity by half. Higher therefore signals a need for much substance. In turn, `COc1ccc(-c2c(-c3cc(OC)c(OC)c(OC)c3)ss/c2=N/O)cc1N` showed an IC50 of 2.91 µM.
The same measure, in the same setting: next, `COc1ccc(-c2ssc(=S)c2-c2cc(OC)c(OC)c(OC)c2)cc1O`: 0.231 µM; `COc1ccc(-c2c(-c3cc(OC)c(OC)c(OC)c3)ssc2=S)cc1[N+](=O)[O-]`: 3.55 µM.
Still for that read-out and setting: with `CO/N=c1/ssc(-c2ccc(OC)c(O)c2)c1-c1cc(OC)c(OC)c(OC)c1` the figure was 4.6 µM; with `COc1ccc(-c2c(-c3cc(OC)c(OC)c(OC)c3)ssc2=O)cc1N`, over 100 µM; with `CO/N=c1/ssc(-c2cc(OC)c(OC)c(OC)c2)c1-c1ccc(OC)c(N)c1`, 0.915 µM.
Same read-out and setting: next, `COc1ccc(-c2c(-c3cc(OC)c(OC)c(OC)c3)ssc2=S)cc1`: 2.27 µM; `COc1ccc(-c2c(-c3cc(OC)c(OC)c(OC)c3)ss/c2=N/O)cc1`: over 100 µM; `COc1ccc(-c2ssc(=S)c2-c2cc(OC)c(OC)c(OC)c2)cc1[N+](=O)[O-]`: 9.14 µM.
The compound `COc1ccc(-c2c(-c3cc(OC)c(OC)c(OC)c3)ssc2=O)cc1` showed an IC50 of over 100 µM.
Still for that read-out and setting: next, `COc1ccc(-c2ssc(=O)c2-c2cc(OC)c(OC)c(OC)c2)cc1`: 0.464 µM; `COc1ccc(-c2c(-c3cc(OC)c(OC)c(OC)c3)ssc2=S)cc1N`: 3 µM.
`COc1ccc(-c2ssc(=O)c2-c2cc(OC)c(OC)c(OC)c2)cc1O`: the midpoint of inhibition, the IC50, lay at 1.91 µM.
Same read-out and setting: with `COc1ccc(-c2ssc(=O)c2-c2cc(OC)c(OC)c(OC)c2)cc1[N+](=O)[O-]` the figure was 4.22 µM; with `COc1ccc(-c2ss/c(=N/O)c2-c2cc(OC)c(OC)c(OC)c2)cc1N`, 9.36 µM; with `CO/N=c1/ssc(-c2cc(OC)c(OC)c(OC)c2)c1-c1ccc(OC)c([N+](=O)[O-])c1`, over 100 µM.
The compound `COc1ccc(-c2c(-c3cc(OC)c(OC)c(OC)c3)ss/c2=N/O)cc1[N+](=O)[O-]` gave an IC50 of 3.03 µM.
On the same count and under the same terms, next, `COc1ccc(-c2c(-c3cc(OC)c(OC)c(OC)c3)ssc2=O)cc1[N+](=O)[O-]`: over 100 µM.
Regarding `COc1ccc(-c2ssc(=S)c2-c2cc(OC)c(OC)c(OC)c2)cc1`, the IC50 turned out to be 18.6 µM.
The compound `COc1ccc(-c2ss/c(=N/O)c2-c2cc(OC)c(OC)c(OC)c2)cc1O` yielded an IC50 of 0.73 µM.
As for `COc1ccc(-c2ss/c(=N/O)c2-c2cc(OC)c(OC)c(OC)c2)cc1`, half-maximal inhibition (IC50) was put at 6.66 µM.
Compound `COc1ccc(-c2ssc(=S)c2-c2cc(OC)c(OC)c(OC)c2)cc1N` came in with a 50% inhibitory concentration (IC50) of 0.834 µM.
`CO/N=c1/ssc(-c2ccc(OC)c(N)c2)c1-c1cc(OC)c(OC)c(OC)c1` yielded an IC50 of 4.23 µM.
Still for that read-out and setting: with `COc1ccc(/C=C\c2cc(OC)c(OC)c(OC)c2)cc1O` [COMBRETASTATIN A4] the figure was 0.01 µM.

The nature of the next assay: Antiproliferative activity against human SGC7901 cells measured after 72 hrs by MTT assay. The conditions noted are these: SGC-7901, 72 h. In kind it is functional, cell-based.
In the case of `COc1ccc(-c2c(-c3cc(OC)c(OC)c(OC)c3)ss/c2=N/O)cc1N`, it took 2.91 µM to reach half-maximal inhibition (IC50).
On the same count and under the same terms, next, `COc1ccc(-c2ssc(=S)c2-c2cc(OC)c(OC)c(OC)c2)cc1O`: 0.271 µM; `COc1ccc(-c2c(-c3cc(OC)c(OC)c(OC)c3)ssc2=S)cc1[N+](=O)[O-]`: 44.7 µM.
Take `CO/N=c1/ssc(-c2ccc(OC)c(O)c2)c1-c1cc(OC)c(OC)c(OC)c1`: the IC50 came to 10 µM.
The same measure, in the same setting: with `COc1ccc(-c2c(-c3cc(OC)c(OC)c(OC)c3)ssc2=O)cc1N` the figure was over 100 µM.
Compound `CO/N=c1/ssc(-c2cc(OC)c(OC)c(OC)c2)c1-c1ccc(OC)c(N)c1` had an IC50 of 1.96 µM.
On the same count and under the same terms, with `COc1ccc(-c2c(-c3cc(OC)c(OC)c(OC)c3)ssc2=S)cc1` the figure was 2.35 µM.
Same read-out and setting: next, `COc1ccc(-c2c(-c3cc(OC)c(OC)c(OC)c3)ss/c2=N/O)cc1`: over 100 µM.
On the same count and under the same terms, with `COc1ccc(-c2ssc(=S)c2-c2cc(OC)c(OC)c(OC)c2)cc1[N+](=O)[O-]` the figure was 13.6 µM.
The compound `COc1ccc(-c2c(-c3cc(OC)c(OC)c(OC)c3)ssc2=O)cc1` showed a half-maximal inhibitory concentration (IC50) of over 100 µM.
Still for that read-out and setting: with `COc1ccc(-c2ssc(=O)c2-c2cc(OC)c(OC)c(OC)c2)cc1` the figure was 0.134 µM; with `COc1ccc(-c2c(-c3cc(OC)c(OC)c(OC)c3)ssc2=S)cc1N`, 2.62 µM; with `COc1ccc(-c2ssc(=O)c2-c2cc(OC)c(OC)c(OC)c2)cc1O`, 3.11 µM.
On the same count and under the same terms, with `COc1ccc(-c2ssc(=O)c2-c2cc(OC)c(OC)c(OC)c2)cc1[N+](=O)[O-]` the figure was 0.44 µM.
Same read-out and setting: with `COc1ccc(-c2ss/c(=N/O)c2-c2cc(OC)c(OC)c(OC)c2)cc1N` the figure was 4.3 µM; with `CO/N=c1/ssc(-c2cc(OC)c(OC)c(OC)c2)c1-c1ccc(OC)c([N+](=O)[O-])c1`, over 100 µM; with `COc1ccc(-c2c(-c3cc(OC)c(OC)c(OC)c3)ss/c2=N/O)cc1[N+](=O)[O-]`, 6.56 µM.
`COc1ccc(-c2c(-c3cc(OC)c(OC)c(OC)c3)ssc2=O)cc1[N+](=O)[O-]` gave an IC50 of over 100 µM.
The compound `COc1ccc(-c2ssc(=S)c2-c2cc(OC)c(OC)c(OC)c2)cc1` had an IC50 of 21.1 µM.
`COc1ccc(-c2ss/c(=N/O)c2-c2cc(OC)c(OC)c(OC)c2)cc1O` had an IC50 of 0.2 µM.
For the compound `COc1ccc(-c2ss/c(=N/O)c2-c2cc(OC)c(OC)c(OC)c2)cc1`, the IC50 stood at 17.4 µM.
Same read-out and setting: with `COc1ccc(-c2ssc(=S)c2-c2cc(OC)c(OC)c(OC)c2)cc1N` the figure was 0.444 µM; with `CO/N=c1/ssc(-c2ccc(OC)c(N)c2)c1-c1cc(OC)c(OC)c(OC)c1`, over 100 µM.
In turn, `COc1ccc(/C=C\c2cc(OC)c(OC)c(OC)c2)cc1O` [COMBRETASTATIN A4] came in with an IC50 of 0.026 µM.

The next assay in a line: Cell cycle arrest in human KB cells assessed as accumulation at G2/M-phase up to 0.2 uM measured after 24 hrs by propidium iodide staining-based flow cytometry. In kind it is functional.
Conditions: not given
Take `COc1ccc(-c2ssc(=O)c2-c2cc(OC)c(OC)c(OC)c2)cc1O`: the outcome was Active.
The same measure, in the same setting: next, `COc1ccc(-c2ss/c(=N/O)c2-c2cc(OC)c(OC)c(OC)c2)cc1N`: “Active”.

The nature of a further assay: Antitumor activity against mouse SVR cells implanted in athymic nude mouse assessed as tumor growth inhibition at 250 mg/kg, po qd for 10 days measured on day 4 relative to control. The conditions noted are these: read-out: TGI.
With `Cc1c(-c2cnccn2)ssc1=S` [OLTIPRAZ], the inhibition in vivo at 250 mg/kg is 81%.

A further assay is described as follows: Antiproliferative activity against human KB cells measured after 72 hrs by MTT assay. In kind it is functional, cell-based.
Conditions: not given
Turning to `COc1ccc(-c2c(-c3cc(OC)c(OC)c(OC)c3)ss/c2=N/O)cc1N`, the IC50 came out at 2.91 µM.
Consider `COc1ccc(-c2ssc(=S)c2-c2cc(OC)c(OC)c(OC)c2)cc1O`, for which the IC50 amounted to 0.435 µM.
Still for that read-out and setting: next, `COc1ccc(-c2c(-c3cc(OC)c(OC)c(OC)c3)ssc2=S)cc1[N+](=O)[O-]`: 38.2 µM; `CO/N=c1/ssc(-c2ccc(OC)c(O)c2)c1-c1cc(OC)c(OC)c(OC)c1`: 14.5 µM; `COc1ccc(-c2c(-c3cc(OC)c(OC)c(OC)c3)ssc2=O)cc1N`: over 100 µM.
Take `CO/N=c1/ssc(-c2cc(OC)c(OC)c(OC)c2)c1-c1ccc(OC)c(N)c1`: it took 0.517 µM to reach half-maximal inhibition (IC50).
Compound `COc1ccc(-c2c(-c3cc(OC)c(OC)c(OC)c3)ssc2=S)cc1` had a concentration for half-maximal inhibition (IC50) of 1.14 µM.
The compound `COc1ccc(-c2c(-c3cc(OC)c(OC)c(OC)c3)ss/c2=N/O)cc1` showed an IC50 of over 100 µM.
Still for that read-out and setting: with `COc1ccc(-c2ssc(=S)c2-c2cc(OC)c(OC)c(OC)c2)cc1[N+](=O)[O-]` the figure was over 100 µM; with `COc1ccc(-c2c(-c3cc(OC)c(OC)c(OC)c3)ssc2=O)cc1`, over 100 µM.
Still for that read-out and setting: next, `COc1ccc(-c2ssc(=O)c2-c2cc(OC)c(OC)c(OC)c2)cc1`: 0.324 µM.
The same measure, in the same setting: next, `COc1ccc(-c2c(-c3cc(OC)c(OC)c(OC)c3)ssc2=S)cc1N`: 2.17 µM; `COc1ccc(-c2ssc(=O)c2-c2cc(OC)c(OC)c(OC)c2)cc1O`: 0.46 µM.
On to `COc1ccc(-c2ssc(=O)c2-c2cc(OC)c(OC)c(OC)c2)cc1[N+](=O)[O-]`, for which the midpoint of inhibition, the IC50, lay at 22.3 µM.
Still for that read-out and setting: with `COc1ccc(-c2ss/c(=N/O)c2-c2cc(OC)c(OC)c(OC)c2)cc1N` the figure was 0.099 µM; with `CO/N=c1/ssc(-c2cc(OC)c(OC)c(OC)c2)c1-c1ccc(OC)c([N+](=O)[O-])c1`, over 100 µM; with `COc1ccc(-c2c(-c3cc(OC)c(OC)c(OC)c3)ss/c2=N/O)cc1[N+](=O)[O-]`, 5.26 µM.
For `COc1ccc(-c2c(-c3cc(OC)c(OC)c(OC)c3)ssc2=O)cc1[N+](=O)[O-]`, the IC50 was over 100 µM.
On to `COc1ccc(-c2ssc(=S)c2-c2cc(OC)c(OC)c(OC)c2)cc1`, for which the IC50 worked out at 4.91 µM.
The same measure, in the same setting: with `COc1ccc(-c2ss/c(=N/O)c2-c2cc(OC)c(OC)c(OC)c2)cc1O` the figure was 0.85 µM.
Same read-out and setting: with `COc1ccc(-c2ss/c(=N/O)c2-c2cc(OC)c(OC)c(OC)c2)cc1` the figure was 13.7 µM; with `COc1ccc(-c2ssc(=S)c2-c2cc(OC)c(OC)c(OC)c2)cc1N`, 0.327 µM.
As for `CO/N=c1/ssc(-c2ccc(OC)c(N)c2)c1-c1cc(OC)c(OC)c(OC)c1`, the IC50 came to 4.33 µM.
In turn, `COc1ccc(/C=C\c2cc(OC)c(OC)c(OC)c2)cc1O` [COMBRETASTATIN A4] yielded an IC50 of 0.007 µM.

Another assay in a line: Inhibition of porcine brain tubulin polymerization measured after 60 mins by fluorescence analysis. The arrangement: species or system Sus scrofa.
Conditions: not given
In the case of `COc1ccc(-c2ssc(=O)c2-c2cc(OC)c(OC)c(OC)c2)cc1O`, the concentration for half-maximal inhibition (IC50) is 9.71 µM.
Same read-out and setting: next, `COc1ccc(-c2ss/c(=N/O)c2-c2cc(OC)c(OC)c(OC)c2)cc1N`: 12.8 µM; `COc1ccc(/C=C\c2cc(OC)c(OC)c(OC)c2)cc1O` [COMBRETASTATIN A4]: 0.92 µM.

A further assay can be described thus: Cell cycle arrest in human KB cells assessed as accumulation at G2/M-phase at 0.2 uM measured up to 60 hrs by propidium iodide staining-based flow cytometry.
Conditions: not given
In kind it is functional.
In the case of `COc1ccc(-c2ssc(=O)c2-c2cc(OC)c(OC)c(OC)c2)cc1O`, the result was Active.
Regarding `COc1ccc(-c2ss/c(=N/O)c2-c2cc(OC)c(OC)c(OC)c2)cc1N`, the result was Active.
